What all share (assay type): in vivo
Holding throughout (settings): 1000 g/ha, evaluated after 13 days

In assay [1] the test system is Setaria faberi (SETFA). The experiment in a line: Post-emergence Test (Table B2). How it is done:
(§1) Seeds of a variety of test species are sown in standard soil in pots (Amaranthus palmeri (AMAPA), Setaria faberi (SETFA), Echinochloa crus-galli (ECHCG), (Amaranthus retroflexus (AMARE), Zea mays (ZEAMX), Ipomoea hederacea (IPOHE)). After 8 days cultivation under controlled conditions in a glasshouse (at 24° C./16° C., day/night; 14 hours light; 65% humidity), the plants are sprayed with an aqueous spray solution derived from the formulation of the technical active ingredient in acetone/water (50:50) solution containing 0.5% Tween 20 (polyoxyethelyene sorbitan monolaurate, CAS RN 9005-64-5). Compounds are applied at 1000 g/ha unless otherwise stated. The test plants are then grown in a glasshouse under controlled conditions in a glasshouse (at 24° C./16° C., day/night; 14 hours light; 65% humidity) and watered twice daily. After 13 days the test is evaluated for the percentage damage caused to the plant.

Assay [2] deals with Amaranthus retroflexus (AMARE). The assay is described as follows: Post-emergence Test (Table B2). How it is done:
as §1

The subject of assay [3] is Amaranthus palmeri (AMAPA). The experiment in a line: Post-emergence Test (Table B2). How it is done: as §1
Assay [4] deals with Ipomoea hederacea (IPOHE). The assay is described as follows: Pre-emergence Test (Table B1). Further details: key: 5=81-100%; 4=61-80%; 3=41-60%; 2=21-40%; 1=0-20%; 0=inactive.
Assay [5] relates to Echinochloa crus-galli (ECHCG). The assay is described as follows: Pre-emergence Test (Table B1). On the set-up: key: 5=81-100%; 4=61-80%; 3=41-60%; 2=21-40%; 1=0-20%; 0=inactive.
In assay [6] the test system is Amaranthus palmeri (AMAPA). The experiment in a line: Pre-emergence Test (Table B1).
Assay [7] concerns Setaria faberi (SETFA). The assay is described as follows: Pre-emergence Test (Table B1). Further details: key: 5=81-100%; 4=61-80%; 3=41-60%; 2=21-40%; 1=0-20%; 0=inactive.
The test system of assay [8] is Amaranthus retroflexus (AMARE). The experiment in a line: Pre-emergence Test (Table B1).
Assay [9] has as its system Echinochloa crus-galli (ECHCG). The assay is described as follows: Post-emergence Test (Table B2). On the set-up: key: 5=81-100%; 4=61-80%; 3=41-60%; 2=21-40%; 1=0-20%; 0=inactive. How it is done:
as §1

For assay [10], the system named is Ipomoea hederacea (IPOHE). The experiment in a line: Post-emergence Test (Table B2). Further details: key: 5=81-100%; 4=61-80%; 3=41-60%; 2=21-40%; 1=0-20%; 0=inactive. How it is done:
as §1

Assay [11] concerns Zea mays (ZEAMX). The experiment in a line: Post-emergence Test (Table B2). On the set-up: key: 5=81-100%; 4=61-80%; 3=41-60%; 2=21-40%; 1=0-20%; 0=inactive. How it is done:
as §1

The test system of assay [12] is Zea mays (ZEAMX). The experiment in a line: Pre-emergence Test (Table B1). On the set-up: key: 5=81-100%; 4=61-80%; 3=41-60%; 2=21-40%; 1=0-20%; 0=inactive.

`CCOCC(C)OC(=O)c1ccc(F)c(-c2c(C)n(CC)c(-c3ccc(Cl)c(Cl)c3)c(C(=O)O)c2=O)c1` (stereo not drawn) [Compound 14, 2-(3,4-dichlorophenyl)-5-[5-(2-ethoxy-1-methyl-ethoxy)carbonyl-2-fluoro-phenyl]-1-ethyl-6-methyl-4-oxo-pyridine-3-carboxylic acid]: the “percentage damage caused to the plant, SETFA” value in assay [1] and in assay [7] was 3 (3=41-60%) in each case. The “percentage damage caused to the plant, AMARE” value in assay [2] and in assay [8] was 5 (5=81-100%) throughout. Moreover, the “percentage damage caused to the plant, AMAPA” value in assay [3] and in assay [6] was 5 (5=81-100%) in each case. Also, the “percentage damage caused to the plant, IPOHE” value in assay [4] and in assay [10] was 0 in each case. Besides, the “percentage damage caused to the plant, ECHCG” value in assay [5] was 0; in [9], 3 (3=41-60%). Also, the entries for the “percentage damage caused to the plant, ZEAMX” value in assay [11] and in [12] were 1 (1=0-20%) and 0, respectively.
For the molecule `CC#CC(C)OC(=O)c1ccc(F)c(-c2c(C)n(CC)c(-c3ccc(Cl)c(Cl)c3)c(C(=O)O)c2=O)c1` (stereo not drawn) [Compound 15, 2-(3,4-dichlorophenyl)-1-ethyl-5-[2-fluoro-5-(1-methylbut-2-ynoxycarbonyl)phenyl]-6-methyl-4-oxo-pyridine-3-carboxylic acid], the figures for the “percentage damage caused to the plant, SETFA” value in assay [1] and in assay [7] were 5 (5=81-100%) and 0, respectively. The “percentage damage caused to the plant, AMARE” value in assay [2] and in assay [8] was 5 (5=81-100%) throughout. For the same molecule, the “percentage damage caused to the plant, AMAPA” value in [3] and in assay [6] was 5 (5=81-100%) throughout. Moreover, the entries for the “percentage damage caused to the plant, IPOHE” value in [4] and in [10] were 0 and 2 (2=21-40%), respectively. The “percentage damage caused to the plant, ECHCG” value in assay [5] is reported as 0; in [9], 5 (5=81-100%). The “percentage damage caused to the plant, ZEAMX” value in [11] was 4 (4=61-80%); in assay [12] it was 0.
For `C#CC(C)OC(=O)c1cc(-c2c(C)n(CC)c(-c3ccc(Cl)c(Cl)c3)c(C(=O)O)c2=O)c(F)cc1Cl` (stereo not drawn) [Compound 20, 5-[4-chloro-2-fluoro-5-(1-methylprop-2-ynoxycarbonyl)phenyl]-2-(3,4-dichlorophenyl)-1-ethyl-6-methyl-4-oxo-pyridine-3-carboxylic acid], the results for the “percentage damage caused to the plant, SETFA” value in [1] and in [7] were 5 (5=81-100%) and 3 (3=41-60%), respectively. Moreover, the “percentage damage caused to the plant, AMARE” value in assay [2] and in [8] was 5 (5=81-100%) each time. Also, the “percentage damage caused to the plant, AMAPA” value in assay [3] and in assay [6] was 5 (5=81-100%) throughout. The “percentage damage caused to the plant, IPOHE” value in assay [4] is 0; in assay [10], 4 (4=61-80%). Moreover, the “percentage damage caused to the plant, ECHCG” value was 3 (3=41-60%) in [5] and 5 (5=81-100%) in assay [9]. Further, the “percentage damage caused to the plant, ZEAMX” value in assay [11] was 4 (4=61-80%); in assay [12] it was 0.
